Experimental data: article PMC6267684, “Pharmacokinetic evaluation of the PNC disassembler metarrestin in wild-type and Pdx1-Cre;LSL-Kras^G12D/+;Tp53^R172H/+ (KPC) mice, a genetically engineered model of pancreatic cancer” (Cancer Chemotherapy and Pharmacology, 2018)

System: PNC in PC3M cells
Test: PNC disassembly assay in PC3M cells
Assay type: cell-based
Details: PC3M (PTB-GFP) cells
Procedure: The PNC disassembly assay has been previously described. […] Cells were fixed with […] for 10 min at room temperature. […] Confocal images were obtained using Opera Phoenix (PerkinElmer, Waltham, MA) and a 20× objective lens.
To examine whether measured intratumor metarrestin concentrations measured in PK studies track with intracellular metarrestin concentration, we first decided to synthesize a fluorophore conjugated analog of metarrestin. Structure activity relationship studies around the structure of metarrestin were conducted in a high throughput assay that measured in dose dependence the ability of compounds to reducing PNC prevalence in PC3M cells. […] This analog was chemically conjugated to the fluorophore boron-dipyrromethene (BODIPY®) to track the disassembly of the PNC in PC3M cancer cells by confocal microscopy (Suppl. Figure 2). […] Next, to examine cellular metarrestin levels in relation to extracellular concentrations, we exposed KPC and PC3M cells at 1 and 10 µM concentrations of metarrestin and harvested cells at different timepoints.

With `N=c1c2c(-c3ccccc3)c(-c3ccccc3)n(Cc3ccccc3)c2ncn1C1CCOCC1` [NCGC00244845] the IC50 was 0.089 µM.
